From patent US7226783B1, “Vanillin production” (David Michael & Co., Inc., priority 1997, dated 2007)
Blank lines part the entries; values can stand above or below the compound they belong to.

Tests used:
[1] = tested on: alcohol dehydrogenase from Vanilla planifolia embryo culture (vanillyl alcohol dehydrogenase, VAD); test: Substrate specificity of vanillyl alcohol dehydrogenase (VAD); assay type: biochemical; details: for Activity with the compound as substrate, NADH: cofactor NADH; for Activity with the compound as substrate, NADPH: cofactor NADPH
Procedure: We have purified and characterized the activity of VAD that catalyze the reduction of vanillin to vanillyl alcohol. The enzyme was identified as an NADH or NADPH-dependent alcohol dehydrogenase. The purification protocol was as set forth below.
Crude enzyme extract: Tissue was homogenized in 0.05 M actetate-Na buffer pH 4.0 (in proportion, 1 g of the tissue and 5 ml of the buffer) in an ice bath, using Polytrone homogenizer, at 20,000 revolutions of the blade per min. The homogenate was centrifuged at 13000 g for 15 min at 4° C. and the supernatant served as the crude enzyme source.
Ammonium sulfate fractionation and molecular sieving: Crude enzyme extract (100 ml) was supplied with ammonium sulfate in an ice bath up to 60% of saturation (44.4 g of Ammonium sulphate per 100 ml). The precipitate was centrifuged and discarded. The supernatant was supplied with ammonium sulfate up to 90% of saturation (total 64.6 g per 100 ml of crude extract). The precipitate was collected (10 min centrifugation at 10,000 g), dissolved in 7 ml of extraction buffer and subjected to molecular sieving at Sephacryl S-300 High Load Column (LKB Pharmacia) 2.6×60 cm, in 0.1 M pH 4.0 acetate-Na buffer. The flow rate was adjusted to 1 ml/min and 5 ml fractions were collected. The protein elution profile was monitored at 280 nm. Five fractions (of a total of 50) containing dehydrogenase activity (130–155 ml of the column eluate) were collected.
The column was developed with 0.5 M Tris/HCL buffer pH 7.4 in 0.0–1.0 M NaCl gradient (total gradient volume—70 ml) and 2.5 ml fractions were collected. Vanillyl alcohol dehydrogenase was released from the column between 0.3–0.4 M NaCl. Fractions containing VAD activity were dialysed overnight against 0.05 M caetate-Na buffer pH 4.0 and concentrated up to 50 times using Minicon concentrating filters (Amicon). […]

[2] = tested on: Vanilla embryo culture; test: Feeding vanilla embryo culture with vanillin precursors, HPLC analysis of metabolites; assay type: cell-based, Vanilla planifolia
Text: We derived a scheme for the vanillin biosynthetic pathway by analysis of metabolites in cultured embryos and by experiments with feeding of precursors and intermediates. This scheme is shown in FIG. 1 and the experiments are described below.
(§1) Embryo cultures of Vanilla planifolia were established as described in Example 1. The procedures used to extract phenolics from the cultured embryo cells and to analyze the extracts by high pressure liquid chromatography (HPLC) were as described generally by Havkin-Frenkel et al., Plant Cell, Tissue and Organ Culture 45: 133–136 (1996).
(§2) In the extraction procedure, 3 ml of 0.05 M sodium acetate buffer, pH 5.5, was added to about 1 gram of fresh culture. Samples were placed in boiling water for three minutes, then chilled. The cells were next homogenized in a Polytron blender for 1 minute at medium speed. A β-glucosidase solution was added to the homogenized cells to give a final concentration of 0.2%. Each sample was then incubated at 37° C. for 5 hr. Next, 17 ml of 95% ethanol was added, after which incubation at 37° C. was continued for an additional 24 hrs. The extract was then filtered and the ethanol evaporated. The filtrate was extracted twice using ethyl acetate, then extracted twice with ethyl acetate acidified to pH 3 with HCl. The extracts were combined and the ethyl acetate evaporated. The residue was dissolved in 1 ml of acidified methanol and filtered with a 0.45 μm syringe filter for HPLC analysis.
Extractions of metabolites from culture medium was similar to the cell extraction protocol. Five ml of spent medium was incubated in a β-glucosidase solution at 37° C. for 24 hrs. The medium was then extracted with ethyl acetate and the organic portions combined and evaporated, as for the cell extracts.
(§3) Metabolite levels were measured with a Hewlett Packard 1090L or a Waters HPLC with a UV detector at 280 nm. The Waters HPLC was also equipped with a diode array detector to confirm the identities of the various intermediates, and the identities of the various intermediates were further confirmed by mass spectrometry. The column was a Supelco C-18 DB column of dimensions 250 mm×4.6 mm and a particle size of 5 μm. The mobile phase contained methanol and water, each of which was acidified with 1.25% acetic acid. The flow rate was 1 ml/min, with a solvent gradient as follows: […]
Results of selected experiments in which precursors or elicitors were added to vanilla cultures are set forth below. These experiments were performed in accordance with the procedures set forth in Examples 1–4.

[3] = tested on: p-hydroxybenzaldehyde synthase; test: Substrate specificity of p-hydroxybenzaldehyde synthase (chain shortening enzyme), crude enzyme; assay type: biochemical, Vanilla planifolia; details: for Result: conversion of the compound as substrate to the expected chain-shortened product: crude enzyme, HPLC detection of product
Procedure: Sterile plant material (2 g) 2–3 weeks after subculture, was homogenized in a cooled Potter glass homogenizer with 4 ml of 0.1 M HEPES buffer, pH 8.0, containing 10 mM DTT. The homogenate was next centrifuged at 4° C. at 15.000× g for 15 min. Resultant supernatant (4 ml) was filtered through Sephadex G-25 column (void volume 3–4 ml.) Equilibrated with Tris/HCL buffer pH7, containing 10 mM DTT. The column was washed with the same buffer and 2 ml fraction following the void volume was collected. This fraction was used as the crude enzyme source.
The p-HO-aldehyde synthase activity was determined in the following mixture:
crude enzyme extract: 10 μl
(substrate=1.8 mM p-coumarate in 0.1 M Tris/HCl, pH 8.0 with 10 mM DTT)
The mixture was incubated for 10–60 min (for longer incubation times, the activity was not proportional with time) at 35° C. and next, the reaction stopped by addition of 200 μl of acidified methanol (10% acetic acid in methanol). The slurry was passed through 0.45 μm filter and the filtrate (50 μl) injected into HPLC Bio-sil 18 HL 90-5 column (Reversed phase, 250 mm×4.6 mm). […] The eluate was monitored at 280 nm and retention time of the reaction product was compared to retention time of the standard compounds (benzaldehyde, p-HO-benzaldehyde, vanillin, protocatechuic aldehyde, p-coumaric acid, caffeic acid, ferulic acid, coniferyl aldehyde). The results were quantified using LKB Bromma 2221 Integrator.
As a potential substrates for chain shortening enzyme the following compounds were tested: […]

[4] = tested on: Vanilla planifolia Embryo Culture; test: Malic acid elicitation of embryo culture, HPLC analysis of intermediary metabolites; assay type: cell-based
Procedure: as §1, §2, §3
Malic acid in concentrations of 0.1 to 3% was applied as a disodium salt to the growing medium. The culture was maintained for 1 to 15 days, then was extracted as described in Example 2.
Cultures were grown in medium containing 3% malic acid by weight, for 7 days.

[5] = tested on: V. planifolia embryo culture; test: Uptake of exogenously added vanillin and transformation to vanillyl alcohol in embryo culture; assay type: cell-based, Vanilla planifolia
Text: FIG. 3. Graph showing uptake of exogenously added vanillin and its transformation to vanillyl alcohol by vanillyl alcohol dehydrogenase in V. planifolia embryo culture. V(T)=vanillin in tissue; V(M)=vanillin in medium; VAL(T)=vanillyl alcohol in tissue; VAL(M)=vanillyl alcohol in medium.
Similarly, vanilla embryo culture that can be elicited by various elicitors to produce vanillin accumulates vanillyl alcohol as a final product. It is important to state at this stage that all the intermediates in the pathway are found mainly as glucosides.

[6] = 3% malic acid by weight in medium, 7 days

SMILES: CCOc1cc(C=O)ccc1O [4-hydroxy-3-ethoxybenzaldehyde]
- Activity with the compound as substrate, NADH [1]: 0.42 nmoles · gfwt^−1 · min^−1

- Activity with the compound as substrate, NADH [1]: 0.00 nmoles · gfwt^−1 · min^−1
SMILES: CCOc1cc(C=O)ccc1OC [4-methoxy-3-ethoxybenzaldehyde]

SMILES: COc1ccc(C=O)cc1O [4methoxy-3-hydroxybenzaldehyde]
- Activity with the compound as substrate, NADH [1]: 0.00 nmoles · gfwt^−1 · min^−1
- Activity with the compound as substrate, NADPH [1]: 0.00 nmoles · gfwt^−1 · min^−1

SMILES: CC=O [Acetaldehyde]
- substrate preference of VAD [1]: lower
- Activity with the compound as substrate, NADH [1]: 0.26 nmoles · gfwt^−1 · min^−1

- Activity with the compound as substrate, NADH [1]: 0.32 nmoles · gfwt^−1 · min^−1
- Activity with the compound as substrate, NADPH [1]: 0.14 nmoles · gfwt^−1 · min^−1
SMILES: O=Cc1ccc(O)cc1 [BA, p-hydroxybenzaldehyde]
- CA (p-coumaric acid) content of culture ([2]; precursor fed at 1 mM): 125 mg/100 g dry wt.
- HBA (p-hydroxybenzyl alcohol) content of culture ([2]; precursor fed at 1 mM): 10305 mg/100 g dry wt.
- PRO-ALD (3,4-dihydroxybenzaldehyde) content of culture ([2]; precursor fed at 1 mM): 5.8 mg/100 g dry wt.
- VN (vanillin) content of culture ([2]; precursor fed at 1 mM): 0.015 mg/100 g dry wt.
- VN ALC (vanillyl alcohol) content of culture ([2]; precursor fed at 1 mM): 12.3 mg/100 g dry wt.

SMILES: O=Cc1ccccc1 [Benzaldehyde]
- Activity with the compound as substrate, NADH [1]: 0.33 nmoles · gfwt^−1 · min^−1
- Activity with the compound as substrate, NADPH [1]: 0.18 nmoles · gfwt^−1 · min^−1

- specificity of the tested enzyme towards substrate [3]: very high specificity
- Result: conversion of the compound as substrate to the expected chain-shortened product [3]: positive
SMILES: O=C(O)/C=C/c1ccc(O)cc1 [CA, p-coumaric acid]
- CA (p-coumaric acid) content of culture ([2]; precursor fed at 1 mM): 220 mg/100 g dry wt.
- HBA (p-hydroxybenzyl alcohol) content of culture ([2]; precursor fed at 1 mM): 13000 mg/100 g dry wt.
- PRO-ALD (3,4-dihydroxybenzaldehyde) content of culture ([2]; precursor fed at 1 mM): 10 mg/100 g dry wt.
- VN (vanillin) content of culture ([2]; precursor fed at 1 mM): 0.01 mg/100 g dry wt.
- VN ALC (vanillyl alcohol) content of culture ([2]; precursor fed at 1 mM): 10 mg/100 g dry wt.

- Result: conversion of the compound as substrate to the expected chain-shortened product [3]: negative
SMILES: O=C(O)/C=C/c1ccc(O)c(O)c1 [CAF, caffeic acid]
- CA (p-coumaric acid) content of culture ([2]; precursor fed at 2 mM): 189 mg/100 g dry wt.
- HBA (p-hydroxybenzyl alcohol) content of culture ([2]; precursor fed at 2 mM): 11350 mg/100 g dry wt.
- PRO-ALD (3,4-dihydroxybenzaldehyde) content of culture ([2]; precursor fed at 2 mM): 21 mg/100 g dry wt.
- VN (vanillin) content of culture ([2]; precursor fed at 2 mM): 0.5 mg/100 g dry wt.
- VN ALC (vanillyl alcohol) content of culture ([2]; precursor fed at 2 mM): 32 mg/100 g dry wt.

SMILES: O=CC=Cc1ccccc1 [Cinnamylaldehyde]
- Activity with the compound as substrate, NADH [1]: 0.00 nmoles · gfwt^−1 · min^−1

- Result: conversion of the compound as substrate to the expected chain-shortened product [3]: negative
SMILES: COc1cc(/C=C/C(=O)O)ccc1O [FA, ferulic acid]
- CA (p-coumaric acid) content of culture ([2]; precursor fed at 25 mM): 136 mg/100 g dry wt.
- HBA (p-hydroxybenzyl alcohol) content of culture ([2]; precursor fed at 25 mM): 11007 mg/100 g dry wt.
- PRO-ALD (3,4-dihydroxybenzaldehyde) content of culture ([2]; precursor fed at 25 mM): 4.8 mg/100 g dry wt.
- VN (vanillin) content of culture ([2]; precursor fed at 25 mM): 11.8 mg/100 g dry wt.
- VN ALC (vanillyl alcohol) content of culture ([2]; precursor fed at 25 mM): 23.8 mg/100 g dry wt.

SMILES: OCc1ccc(O)cc1 [HBA, p-hydroxybenzyl alcohol]
- CA (p-coumaric acid) content of culture ([2]; precursor fed at 1 mM): 158 mg/100 g dry wt.
- HBA (p-hydroxybenzyl alcohol) content of culture ([2]; precursor fed at 1 mM): 13100 mg/100 g dry wt.
- PRO-ALD (3,4-dihydroxybenzaldehyde) content of culture ([2]; precursor fed at 1 mM): 4.6 mg/100 g dry wt.
- VN (vanillin) content of culture ([2]; precursor fed at 1 mM): 0.001 mg/100 g dry wt.
- VN ALC (vanillyl alcohol) content of culture ([2]; precursor fed at 1 mM): 9.6 mg/100 g dry wt.
- fate of HBA in tissue homogenates ([2]; tissue homogenates): rapidly metabolized to dihydroxybenzyl aldehyde

SMILES: O=C(O)CC(O)C(=O)O (stereo not drawn) [Malic Acid, malic acid]
- BA content of culture [4, 6]: 0.02% of Dry Weight
- HBA content of culture [4, 6]: 3.60% of Dry Weight
- HMBA (vanillyl alcohol) content of culture [4, 6]: 0.700% of Dry Weight
- HY content of culture [4, 6]: 0.050% of Dry Weight
- PC content of culture [4, 6]: 0.20% of Dry Weight
- PROALD content of culture [4, 6]: 0.025% of Dry Weight
- VN (vanillin) content of culture [4, 6]: 0.072% of Dry Weight
- stimulation of vanillin production relative to standard conditions ([4]; 3% malic acid by weight, 7 days, embryo cultures): more than tenfold
- vanillin yield ([4]; 3% malic acid, embryo cultures, increase from 5): 72 mg/100 g tissue
- effect on production/accumulation of vanillin and vanillyl alcohol ([4]; malic acid 0.1 to 3% as disodium salt, 1 to 15 days): induced the production/accumulation of vanillin and vanillyl alcohol

SMILES: COc1cc(CO)ccc1O [VN. ALC., vanillyl alcohol]
- CA (p-coumaric acid) content of culture ([2]; precursor fed at 2 mM): 206 mg/100 g dry wt.
- HBA (p-hydroxybenzyl alcohol) content of culture ([2]; precursor fed at 2 mM): 10350 mg/100 g dry wt.
- PRO-ALD (3,4-dihydroxybenzaldehyde) content of culture ([2]; precursor fed at 2 mM): 1.1 mg/100 g dry wt.
- VN (vanillin) content of culture ([2]; precursor fed at 2 mM): 8.5 mg/100 g dry wt.
- VN ALC (vanillyl alcohol) content of culture ([2]; precursor fed at 2 mM): 882 mg/100 g dry wt.

- substrate preference of VAD [1]: most preferred substrates
- Activity with the compound as substrate, NADH [1]: 1.26 nmoles · gfwt^−1 · min^−1
- Activity with the compound as substrate, NADPH [1]: 0.97 nmoles · gfwt^−1 · min^−1
SMILES: COc1cc(C=O)ccc1O [Vn, vanillin]
- fate of compound applied to the growing medium of embryo culture [5]: rapid uptake and reduction of the applied compound to vanillyl alcohol

SMILES: COc1cc(/C=C/C=O)ccc1O [coniferyl aldehyde, 4-HO-3-metoxycinnamyl aldehyde]
- Result: conversion of the compound as substrate to the expected chain-shortened product [3]: negative
- Activity with the compound as substrate, NADH [1]: 0.00 nmoles · gfwt^−1 · min^−1

- Result: conversion of the compound as substrate to the expected chain-shortened product [3]: negative
SMILES: O=C(O)/C=C/c1ccccc1 [t-cinnamic acid]
